From ChEMBL document CHEMBL1909046, “DrugMatrix in vitro pharmacology data”

Columns and labels:
B2 bradykinin receptor = molecular target: T1, B2 bradykinin receptor (Homo sapiens, UniProt P30411); format: cell membranes, Membrane; conditions: chem-1; further: in other assays of this panel Not Active means under 50% inhibition at 10 µM
T1 sequence (P30411 whole entry): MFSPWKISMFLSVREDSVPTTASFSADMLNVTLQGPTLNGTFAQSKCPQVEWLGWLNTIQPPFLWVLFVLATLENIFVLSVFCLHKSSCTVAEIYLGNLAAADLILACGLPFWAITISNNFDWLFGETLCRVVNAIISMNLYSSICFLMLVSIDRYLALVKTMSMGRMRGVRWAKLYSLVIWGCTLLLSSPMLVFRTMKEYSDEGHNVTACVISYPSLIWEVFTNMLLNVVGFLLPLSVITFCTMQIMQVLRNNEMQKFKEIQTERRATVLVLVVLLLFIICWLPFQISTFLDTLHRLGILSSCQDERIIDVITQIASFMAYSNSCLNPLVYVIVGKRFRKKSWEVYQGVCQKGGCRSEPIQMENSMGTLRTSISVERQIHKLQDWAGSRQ

Calcitonin receptor = molecular target: T2, Calcitonin receptor (Homo sapiens, UniProt P30988); format: cell membranes, Membrane; conditions: t47d; further: in other assays of this panel Not Active means under 50% inhibition at 10 µM
T2 sequence (P30988 whole entry): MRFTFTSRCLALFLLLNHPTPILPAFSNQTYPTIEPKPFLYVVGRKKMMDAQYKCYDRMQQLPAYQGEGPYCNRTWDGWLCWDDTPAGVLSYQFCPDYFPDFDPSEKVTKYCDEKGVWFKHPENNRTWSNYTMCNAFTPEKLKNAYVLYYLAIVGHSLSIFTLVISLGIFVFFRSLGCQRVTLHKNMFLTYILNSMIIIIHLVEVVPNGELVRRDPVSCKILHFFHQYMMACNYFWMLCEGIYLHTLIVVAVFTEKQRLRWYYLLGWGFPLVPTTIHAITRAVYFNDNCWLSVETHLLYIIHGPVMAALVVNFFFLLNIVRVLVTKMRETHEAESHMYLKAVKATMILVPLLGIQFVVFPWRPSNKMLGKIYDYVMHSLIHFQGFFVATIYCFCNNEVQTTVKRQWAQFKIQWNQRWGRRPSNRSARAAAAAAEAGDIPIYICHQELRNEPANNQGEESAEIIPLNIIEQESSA

[1] = molecular target: T3, C-X-C chemokine receptor type 2 (Homo sapiens, UniProt P25025); format: cell membranes, Membrane; conditions: cho-k1; further: in other assays of this panel Not Active means under 50% inhibition at 10 µM
T3 sequence (P25025 whole entry): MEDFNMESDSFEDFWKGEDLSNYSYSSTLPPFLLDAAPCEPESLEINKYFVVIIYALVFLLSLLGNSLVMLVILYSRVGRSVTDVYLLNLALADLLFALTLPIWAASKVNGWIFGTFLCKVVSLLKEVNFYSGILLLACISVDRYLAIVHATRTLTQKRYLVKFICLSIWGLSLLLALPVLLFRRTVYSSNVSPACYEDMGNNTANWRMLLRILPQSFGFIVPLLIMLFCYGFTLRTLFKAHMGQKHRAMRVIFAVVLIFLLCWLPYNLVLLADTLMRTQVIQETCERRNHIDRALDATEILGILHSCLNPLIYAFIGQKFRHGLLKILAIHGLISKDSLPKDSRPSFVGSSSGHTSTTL

Leukotriene C4 synthase = molecular target: T4, Leukotriene C4 synthase (Cavia porcellus, UniProt A6XA80); format: tissue-based, Lung;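 further: enzyme inhibition assay of leukotriene C4 synthase, using LTA4 as the substrate; in other assays of this panel Not Active means under 50% inhibition at 10 µM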
T4 sequence (A6XA80 whole entry): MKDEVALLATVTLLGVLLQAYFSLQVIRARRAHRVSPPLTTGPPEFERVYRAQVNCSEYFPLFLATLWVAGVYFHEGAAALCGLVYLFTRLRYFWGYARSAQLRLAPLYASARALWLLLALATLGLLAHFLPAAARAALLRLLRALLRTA

[2] = molecular target: T5, Muscarinic acetylcholine receptor M2 (Homo sapiens, UniProt P08172); format: cell membranes, CHO-K1, Membrane; conditions: cho-k1; further: in other assays of this panel Not Active means under 50% inhibition at 10 µM
T5 sequence (P08172 whole entry): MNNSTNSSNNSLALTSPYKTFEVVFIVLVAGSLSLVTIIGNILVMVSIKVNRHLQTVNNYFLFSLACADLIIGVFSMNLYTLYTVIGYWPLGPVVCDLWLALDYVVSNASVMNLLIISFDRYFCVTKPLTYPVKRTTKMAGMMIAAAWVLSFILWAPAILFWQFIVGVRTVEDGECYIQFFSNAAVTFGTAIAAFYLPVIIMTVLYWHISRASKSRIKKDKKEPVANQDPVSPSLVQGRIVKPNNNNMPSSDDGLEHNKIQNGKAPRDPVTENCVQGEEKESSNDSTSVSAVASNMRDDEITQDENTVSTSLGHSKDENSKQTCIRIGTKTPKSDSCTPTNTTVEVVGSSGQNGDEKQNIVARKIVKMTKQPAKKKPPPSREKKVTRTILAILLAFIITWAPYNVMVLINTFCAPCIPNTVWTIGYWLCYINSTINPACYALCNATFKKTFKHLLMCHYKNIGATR

[3] = DRUGMATRIX: Nicotinic Acetylcholine radioligand binding (ligand: [125I] Epibatidine); format: cell membranes, Membrane; conditions: imr-32; Not Active = under 50% inhibition at 10 µM
[4] = molecular target: 5-hydroxytryptamine receptor 1B (Rattus norvegicus, UniProt P28564); format: cell membranes, Wistar, Cerebral cortex, Membrane; further: in other assays of this panel Not Active means under 50% inhibition at 10 µM
Cytochrome P450 2C19 = Cytochrome P450 2C19 (Homo sapiens, UniProt P33261); conditions: bti-tn-5b1-4; further: in other assays of this panel Not Active means under 50% inhibition at 10 µM
Chain of Cytochrome P450 2C19 (P33261 whole entry): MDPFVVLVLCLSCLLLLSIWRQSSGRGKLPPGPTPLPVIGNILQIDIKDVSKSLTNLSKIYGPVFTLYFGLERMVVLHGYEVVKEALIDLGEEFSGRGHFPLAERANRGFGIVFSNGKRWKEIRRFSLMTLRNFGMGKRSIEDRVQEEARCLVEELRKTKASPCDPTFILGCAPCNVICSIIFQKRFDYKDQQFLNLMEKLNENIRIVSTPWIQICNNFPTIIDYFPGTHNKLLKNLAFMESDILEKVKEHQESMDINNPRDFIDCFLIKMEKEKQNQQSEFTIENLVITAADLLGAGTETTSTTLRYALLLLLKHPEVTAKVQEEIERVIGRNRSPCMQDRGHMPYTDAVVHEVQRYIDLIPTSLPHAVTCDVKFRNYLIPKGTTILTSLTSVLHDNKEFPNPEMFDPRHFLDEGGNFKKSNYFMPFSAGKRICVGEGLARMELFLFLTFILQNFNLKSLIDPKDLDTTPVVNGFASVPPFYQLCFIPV

Chain of 5-hydroxytryptamine receptor 1B (P28564 whole entry): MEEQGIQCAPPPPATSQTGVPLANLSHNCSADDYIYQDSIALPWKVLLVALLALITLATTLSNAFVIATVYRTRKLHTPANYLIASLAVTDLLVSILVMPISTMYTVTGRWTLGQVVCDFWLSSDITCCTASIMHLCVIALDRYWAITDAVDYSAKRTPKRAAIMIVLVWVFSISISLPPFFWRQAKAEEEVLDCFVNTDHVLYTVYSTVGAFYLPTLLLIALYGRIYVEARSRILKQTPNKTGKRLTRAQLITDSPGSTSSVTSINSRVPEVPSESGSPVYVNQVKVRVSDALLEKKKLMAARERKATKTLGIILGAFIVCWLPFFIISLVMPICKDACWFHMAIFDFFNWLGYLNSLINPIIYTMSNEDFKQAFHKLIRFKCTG

CCN[C@@H](C)Cc1cccc(C(F)(F)F)c1 [DEXFENFLURAMINE]
Not Active: IC50 (B2 bradykinin receptor) | IC50 (Calcitonin receptor) | IC50 [1] | IC50 (Leukotriene C4 synthase) | IC50 [2] | IC50 [3] | Ki [3] | IC50 [4] | IC50 (Cytochrome P450 2C19) | Ki (Cytochrome P450 2C19)

CCC(=O)O[C@H]1[C@H](O[C@@H]2[C@@H](C)[C@H](O[C@H]3C[C@@](C)(OC)[C@@H](O)[C@H](C)O3)[C@@H](C)C(=O)O[C@H](CC)[C@@](C)(O)[C@H](O)[C@@H](C)C(=O)[C@H](C)C[C@@]2(C)O)O[C@H](C)C[C@@H]1N(C)C [ERYTHROMYCIN PROPIONATE]
Not Active: IC50 (B2 bradykinin receptor) | IC50 (Calcitonin receptor) | IC50 [1] | IC50 (Leukotriene C4 synthase) | IC50 [2] | IC50 [3] | Ki [3] | IC50 [4] | IC50 (Cytochrome P450 2C19) | Ki (Cytochrome P450 2C19)

C=C1/C(=C\C=C2/CCC[C@]3(C)[C@@H]([C@H](C)CCCC(C)C)CC[C@@H]23)C[C@@H](O)C[C@@H]1O [ALFACALCIDOL]
Not Active: IC50 (B2 bradykinin receptor) | IC50 (Calcitonin receptor) | IC50 [1] | IC50 (Leukotriene C4 synthase) | IC50 [2] | IC50 [3] | Ki [3] | IC50 [4] | IC50 (Cytochrome P450 2C19) | Ki (Cytochrome P450 2C19)

CS(=O)(=O)OCCCCOS(C)(=O)=O [BUSULFAN]
Not Active: IC50 (B2 bradykinin receptor) | IC50 (Calcitonin receptor) | IC50 [1] | IC50 (Leukotriene C4 synthase) | IC50 [2] | IC50 [3] | Ki [3] | IC50 [4] | IC50 (Cytochrome P450 2C19) | Ki (Cytochrome P450 2C19)

C[C@]12CCC(=O)C=C1CC[C@@H]1[C@@H]2[C@@H](O)C[C@@]2(C)[C@H]1CC[C@]2(O)C(=O)CO [HYDROCORTISONE]
Not Active: IC50 (B2 bradykinin receptor) | IC50 (Calcitonin receptor) | IC50 [1] | IC50 (Leukotriene C4 synthase) | IC50 [2] | IC50 [3] | Ki [3] | IC50 [4] | IC50 (Cytochrome P450 2C19) | Ki (Cytochrome P450 2C19)

POLYVINYL ALCOHOL
Not Active: IC50 (B2 bradykinin receptor) | Ki (B2 bradykinin receptor) | IC50 (Calcitonin receptor) | Ki (Calcitonin receptor) | IC50 [1] | Ki [1] | IC50 (Leukotriene C4 synthase) | Ki (Leukotriene C4 synthase) | IC50 [2] | Ki [2] | IC50 [3] | Ki [3] | IC50 [4] | Ki [4] | IC50 (Cytochrome P450 2C19) | Ki (Cytochrome P450 2C19)

COBALT(II) ACETYLACETONATE
Not Active: IC50 (B2 bradykinin receptor) | Ki (B2 bradykinin receptor) | IC50 (Calcitonin receptor) | Ki (Calcitonin receptor) | IC50 [1] | Ki [1] | IC50 (Leukotriene C4 synthase) | Ki (Leukotriene C4 synthase) | IC50 [2] | Ki [2] | IC50 [3] | Ki [3] | IC50 [4] | Ki [4] | IC50 (Cytochrome P450 2C19) | Ki (Cytochrome P450 2C19)

Nc1nc(N)nc(NC2CC2)n1 [CYROMAZINE]
Not Active: IC50 (B2 bradykinin receptor) | IC50 (Calcitonin receptor) | IC50 [1] | IC50 (Leukotriene C4 synthase) | IC50 [2] | IC50 [3] | Ki [3] | IC50 [4] | IC50 (Cytochrome P450 2C19) | Ki (Cytochrome P450 2C19)

CN(C(=O)CCCOc1ccc2[nH]c(=O)ccc2c1)C1CCCCC1 [CILOSTAMIDE]
Not Active: IC50 (B2 bradykinin receptor) | IC50 (Calcitonin receptor) | IC50 [1] | IC50 (Leukotriene C4 synthase) | IC50 [2] | IC50 [3] | Ki [3] | IC50 [4] | IC50 (Cytochrome P450 2C19) | Ki (Cytochrome P450 2C19)

CC(C)(Oc1ccc(C2CC2(Cl)Cl)cc1)C(=O)O (configuration not stated) [CIPROFIBRATE]
Not Active: IC50 (B2 bradykinin receptor) | IC50 (Calcitonin receptor) | IC50 [1] | IC50 (Leukotriene C4 synthase) | IC50 [2] | IC50 [3] | Ki [3] | IC50 [4] | IC50 (Cytochrome P450 2C19) | Ki (Cytochrome P450 2C19)

CCc1oc2ccccc2c1C(=O)c1cc(Br)c(O)c(Br)c1 [BENZBROMARONE]
Not Active: IC50 (B2 bradykinin receptor) | IC50 (Calcitonin receptor) | IC50 [1] | IC50 (Leukotriene C4 synthase) | IC50 [2] | IC50 [3] | Ki [3] | IC50 [4] | IC50 (Cytochrome P450 2C19) | Ki (Cytochrome P450 2C19)
